# Assay results as given in US20090215783A1, “COMPOSITION FOR INDUCTION OR INHIBITION OF STEM CELL DIFFERENTIATION” (CHOONGWAE PHARMA CORPORATION, priority 2006, published 2009).
# Key:
# [1] = tested on: human bone marrow derived-mesenchymal stem cells (hBMMSC); assay: Osteogenesis modulating activity assay by test compound alone (ALP activity); assay type: cell-based; conditions: Homo sapiens, 168 h; hBMMSC, 20 μM test compound alone, six to seven days; read-out: Osteogenesis: fold change of ALP activity compared with DMSO control
# Description: Cell culture: Human bone marrow derived-mesenchymal stem cells (hBMMSC) were isolated from normal subjects.
# Osteogenesis modulating activity assay by test compound alone: hBMMSC were cultivated in the culture medium and cells were seeded into 96-well culture plates and test compounds were dissolved in DMSO and diluted with culture media (final 0.01% DMSO) and added into the media (final concentration of test compound was 20 μM) and cultured in the CO2 incubator (37° C., 5% CO2). Culture medium was changed every two days with fresh one and compound was treated again whenever medium was changed. Six to seven days after incubation, Alkaline phosphatase activity of cell lysates was measured by colorimetry. For the determination of mineralization within the cells, Von Kossa staining or Alizarin Red S assay was performed 10-14 days after incubation.
# [2] = tested on: Mouse embryonic stem (ES) cells, TC1; assay: Cardiomyogenesis modulating activity assay (alpha-MHC promoter EGFP, embryoid bodies, FACS/fluorescence microscopy); assay type: cell-based; conditions: embryoid bodies treated for 5 days, FACS
# Description: a. Cell culture: Mouse embryonic stem (ES) cells, TC1 derived from 129/S6 strain were cultured on irradiated feeder layer in the culture medium which is high-glucose DMEM (Gibco) BRL, Germany) supplemented with 15% FBS (Hyclone), 0.1 mM beta-mercaptoethanol, […] sodium pyruvate, 1 mM L-glutamine and 1× non-essential amino acids.
# b. Establishment of alpha-MHC stably transformed ES cell line: A construct (FIG. 8) containing 1.8 kb promoter sequence of the mouse alpha-MHC gene between EcoRI and SalI sites of pEGFP-1 (Clontech Laboratories, Inc, CA, USA) was linearized at XhoI site, and was introduced into mouse ES cells, TC1, using the Gene Pulser II (BioRad, MA). A selection medium containing G418 was applied for two weeks from 24 hours after electroporation. The selected ES cell clones were harvested and expanded on the feeder cell layer. The green fluorescence-expressing clones when differentiated into cardiomyocytes were used in this experiment.
# c. Cardiomyogenesis modulating activity assay: Embryoid body (EB) was formed by hanging drop culture using about a number of 600 (six hundred) ES cells for two days and it was further expanded by culturing in suspension condition on a Petri-dish for another two days. Then each EB was plated on a well of 96 well culture plates. Test compounds were dissolved in DMSO and diluted with culture media (final 0.05% DMSO) and EB was treated with test compound for 5 days. Culture medium was changed every three days after plating. Expression level of EGFP was measured with FACS (Beckman). For FACS analysis, differentiating cells were dissociated with trypsin. For the determination of the extent of differentiation, EB was observed and photographed with an inverted fluorescence microscope (Zeiss, Germany). Number of beating EBs was counted under the microscope and recorded once daily.
Compound,fold induction at 20 µM [1],Cardiomyogenesis: fold change of EGFP expression level compared with DMSO control [2] [fold]
CN1CC(=O)N2[C@@H](Cc3ccc(Cl)cc3)C(=O)N(CCCc3ccccc3)C[C@@H]2N1C(=O)NCc1ccccc1 [#29],0.91,1.71
CCCCN1C[C@H]2N(C(=O)CN(C)N2C(=O)NCc2ccccc2)[C@@H](Cc2ccc(Cl)cc2)C1=O [#30],1.12,1.75
CN1CC(=O)N2[C@H](Cc3ccccc3)C(=O)N(CCc3ccccc3)C[C@H]2N1C(=O)NCc1ccccc1 [#31],1,1.10
CN1CC(=O)N2[C@@H](COCc3ccccc3)C(=O)N(CCc3ccccc3)C[C@@H]2N1C(=O)NCc1ccccc1 [#32],0.94,0.95
CN1CC(=O)N2[C@@H](CCc3ccccc3)C(=O)N(CCc3ccccc3)C[C@@H]2N1C(=O)NCc1ccccc1 [#33],1.85,0.28
COc1ccc(C[C@H]2C(=O)N(CCc3ccccc3)C[C@H]3N2C(=O)CN(C)N3C(=O)NCc2ccccc2)cc1 [#34],1.03,1.71
CN1CC(=O)N2[C@@H](Cc3ccc(OCc4ccccc4)cc3)C(=O)N(CCc3ccccc3)C[C@@H]2N1C(=O)NCc1ccccc1 [#35],0.94,1.03
Cc1ccc(C[C@H]2C(=O)N(CCc3ccccc3)C[C@H]3N2C(=O)CN(C)N3C(=O)NCc2ccccc2)cc1 [#36],1.55,0.54
CN1CC(=O)N2[C@@H](CC3CCCCC3)C(=O)N(CCc3ccccc3)C[C@@H]2N1C(=O)NCc1ccccc1 [#37],0.95,0.98
CN1CC(=O)N2[C@@H](Cc3ccc(F)cc3)C(=O)N(CCc3ccccc3)C[C@@H]2N1C(=O)NCc1ccccc1 [#38],0.48,0.69
CN1CC(=O)N2[C@@H](Cc3ccc(Cl)cc3)C(=O)N(CCc3ccccc3)C[C@@H]2N1C(=O)NCc1ccccc1 [#39],0.79,0.29
CCCCNC(=O)N1[C@H]2CN(CCCCc3ccccc3)C(=O)[C@H](Cc3ccc(O)cc3)N2C(=O)CN1Cc1cccc(F)c1 [#40],0.69,1.11
CCCCNC(=O)N1[C@H]2CN(CCCCc3ccccc3)C(=O)[C@H](C(C)CC)N2C(=O)CN1Cc1cccc(F)c1 (stereo partly drawn) [#41],0.6,2.15
CCCCNC(=O)N1[C@H]2CN(CCCCc3ccccc3)C(=O)[C@H](CCC)N2C(=O)CN1Cc1cccc(F)c1 [#42],0.31,1.87
CCCCNC(=O)N1C2CN(CCCCc3ccccc3)C(=O)C(CC(=O)O)N2C(=O)CN1Cc1cccc(F)c1 (stereo not drawn) [#43],0.33,1.17
CCCCNC(=O)N1[C@H]2CN(CCCCc3ccccc3)C(=O)[C@H](CCC(=O)O)N2C(=O)CN1Cc1cccc(F)c1 [#44],0.56,1.98
CCCCNC(=O)N1[C@H]2CN([C@@H](C)c3ccccc3)C(=O)[C@H](CC(C)C)N2C(=O)CN1Cc1ccc(C)cc1 [#46],1.02,1.90

Compound,fold induction at 20 µM [1],Cardiomyogenesis: fold change of EGFP expression level compared with DMSO control [2] [fold]
C#CCN1CC(=O)N2C(Cc3ccc(C)cc3)C(=O)N(CCCCCCC)C[C@@H]2N1C(=O)NCc1ccccc1 (stereo partly drawn) [#51],0.31,0.49
CC(C)[C@H]1C(=O)N(Cc2cccc(F)c2)C[C@H]2N1C(=O)CN(Cc1ccccc1)N2C(=O)NCc1ccccc1 [#55],0.98,1.26
CCC(C)[C@H]1C(=O)N(Cc2cccc(F)c2)C[C@H]2N1C(=O)CN(Cc1ccccc1)N2C(=O)NCc1ccccc1 (stereo partly drawn) [#57],0.64,0.43
CC(C)C[C@@H]1C(=O)N(Cc2cccc(C(F)(F)F)c2)C[C@@H]2N1C(=O)CN(Cc1ccc(F)cc1)N2C(=O)NCc1ccccc1 [#63],0.41,0.47
O=C1[C@H](CCc2ccccc2)N2C(=O)CN(Cc3ccc(F)cc3)N(C(=O)NCc3ccccc3)[C@H]2CN1Cc1cccc(C(F)(F)F)c1 [#64],0.79,2.83
COc1ccc(C[C@H]2C(=O)N(Cc3cccc(C(F)(F)F)c3)C[C@H]3N2C(=O)CN(Cc2ccc(F)cc2)N3C(=O)NCc2ccccc2)cc1 [#65],1.34,2.54
Cc1ccc(C[C@H]2C(=O)N(Cc3cccc(C(F)(F)F)c3)C[C@H]3N2C(=O)CN(Cc2ccc(F)cc2)N3C(=O)NCc2ccccc2)cc1 [#67],0.8,1.50
CC[C@H]1C(=O)N(Cc2cccc(C(F)(F)F)c2)C[C@H]2N1C(=O)CN(Cc1ccc(F)cc1)N2C(=O)NCc1ccccc1 [#68],0.91,0.69
O=C1[C@H](CC2CCCCC2)N2C(=O)CN(Cc3ccc(F)cc3)N(C(=O)NCc3ccccc3)[C@H]2CN1Cc1cccc(C(F)(F)F)c1 [#69],0.71,1.69
O=C1[C@H](Cc2ccc(F)cc2)N2C(=O)CN(Cc3ccc(F)cc3)N(C(=O)NCc3ccccc3)[C@H]2CN1Cc1cccc(C(F)(F)F)c1 [#70],1.03,0.92
O=C1[C@H](Cc2ccc(Cl)cc2)N2C(=O)CN(Cc3ccc(F)cc3)N(C(=O)NCc3ccccc3)[C@H]2CN1Cc1cccc(C(F)(F)F)c1 [#72],0.84,1.76
O=C1[C@H](COCc2ccccc2)N2C(=O)CN(Cc3ccccc3)N(C(=O)NCc3ccccc3)[C@H]2CN1CCc1ccc(Cl)cc1 [#73],0.64,1.57
CC(C)C[C@@H]1C(=O)N(CCc2ccc(Cl)cc2)CC2N1C(=O)CN(Cc1ccccc1)N2C(=O)NCc1ccccc1 (stereo partly drawn) [#74],0.54,1.59
O=C1[C@H](CCc2ccccc2)N2C(=O)CN(Cc3ccccc3)N(C(=O)NCc3ccccc3)[C@H]2CN1CCc1ccc(Cl)cc1 [#75],1.16,0.50
COc1ccc(C[C@H]2C(=O)N(CCc3ccc(Cl)cc3)C[C@H]3N2C(=O)CN(Cc2ccccc2)N3C(=O)NCc2ccccc2)cc1 [#76],1.58,1.24
O=C1[C@H](Cc2ccc(OCc3ccccc3)cc2)N2C(=O)CN(Cc3ccccc3)N(C(=O)NCc3ccccc3)[C@H]2CN1CCc1ccc(Cl)cc1 [#77],0.98,1.40
